Data taken from the RepoRT retention time repository (doi:10.1016/j.chroma.2015.11.014).

assay: RP, Agilent ZORBAX Eclipse Plus C18, 150 × 2.1 mm, 3.5 µm, 40 °C, 0.3 mL/min, estimated dead time 1.1 min; A: water + 0.1% formic acid; B: acetonitrile + 0.1% formic acid; gradient (min/%B) 0/2 1/2 2/20 16.5/98 22/98; settings: stereoisomer not certain

**Q.** For CC(C)c1ccc(OP(=O)(Oc2ccc(C(C)C)cc2)Oc2ccc(C(C)C)cc2)cc1, which LC retention time is on record?
**A.** 18.9 min

**Q.** With CC(C)CC(C)(O)C#CC(C)(O)CC(C)C (stereo not drawn) as the compound, how does the LC retention time read?
**A.** 12.4 min

**Q.** For Nc1ccc(S(=O)(=O)Nc2ncccn2)cc1, which LC retention time is on record?
**A.** 5.24 min

**Q.** Which LC retention time does the source give for CC(=O)C1CCC2C3CCC4=CC(=O)CCC4(C)C3CCC12C (stereo not drawn) here?
**A.** 13.8 min

**Q.** With CCCCCCCCCCCCCC[N+](C)(C)Cc1ccccc1 as the compound, how does the LC retention time read?
**A.** 12.8 min

**Q.** With CCCCCCCCCCC(C(=O)OCC)[N+](C)(C)Cc1ccccc1 (stereo not drawn) as the compound, how does the LC retention time read?
**A.** 11.7 min

**Q.** For COC1=C(C)C(=O)C2=C(C1=O)C(COC(N)=O)C1(OC)C3NC3CN21 (stereo not drawn), which LC retention time is on record?
**A.** 7.05 min

**Q.** With CC(C)(C)NCC(O)COc1nsnc1N1CCOCC1 (stereo not drawn) as the compound, how does the LC retention time read?
**A.** 5.51 min

**Q.** With CN1CC(=O)N2C(Cc3c([nH]c4ccccc34)C2c2ccc3c(c2)OCO3)C1=O (stereo not drawn) as the compound, how does the LC retention time read?
**A.** 9.8 min

**Q.** With COC(=O)Nc1ccccc1 as the compound, how does the LC retention time read?
**A.** 8.47 min

**Q.** With CCCCCCCCCCCCCCCCN1C=CC=CC1 as the compound, how does the LC retention time read?
**A.** 13 min

**Q.** With COP(=O)(NC(C)=O)SC (stereo not drawn) as the compound, how does the LC retention time read?
**A.** 4.5 min

**Q.** Which LC retention time does the source give for COc1ccc2c3c1OC1C(=O)C=CC4C(C2)N(C)CCC314 (stereo not drawn) here?
**A.** 5.06 min

**Q.** With COCCCOc1cc(CC(CC(N)C(O)CC(C(=O)NCC(C)(C)C(N)=O)C(C)C)C(C)C)ccc1OC (stereo not drawn) as the compound, how does the LC retention time read?
**A.** 8.2 min

**Q.** Which LC retention time does the source give for Nc1ncnc2c1ncn2C1CC(O)C(CO)O1 (stereo not drawn) here?
**A.** 3.4 min

**Q.** Which LC retention time does the source give for CCOC(=O)c1cnc(N)nc1N here?
**A.** 4.61 min

**Q.** For Cn1cnc2[nH]c(=O)[nH]c(=O)c21, which LC retention time is on record?
**A.** 4.44 min

**Q.** For CC(=O)Nc1ccc(O)c(O)c1, which LC retention time is on record?
**A.** 4.47 min

**Q.** For NC(=O)N1c2ccccc2CC(O)c2ccccc21 (stereo not drawn), which LC retention time is on record?
**A.** 7.19 min

**Q.** For ON(Cc1ccccc1)Cc1ccccc1, which LC retention time is on record?
**A.** 8.96 min

**Q.** For CSCC1OC(n2cnc3c(N)ncnc32)C(O)C1O (stereo not drawn), which LC retention time is on record?
**A.** 4.79 min

**Q.** Which LC retention time does the source give for CCSc1nc2ccccc2s1 here?
**A.** 13.7 min

**Q.** For CCN(CC)C(=O)C(C#N)=Cc1cc(O)c(O)c([N+](=O)[O-])c1, which LC retention time is on record?
**A.** 9.38 min

**Q.** For Cc1ccc(S(=O)(=O)O)cc1, which LC retention time is on record?
**A.** 5.4 min

**Q.** With c1ccc(CC2=NCCN2)cc1 as the compound, how does the LC retention time read?
**A.** 4.62 min

**Q.** With CC(=C(CCO)SSC(CCO)=C(C)N(C=O)Cc1cnc(C)nc1N)N(C=O)Cc1cnc(C)nc1N as the compound, how does the LC retention time read?
**A.** 4.48 min

**Q.** For Cc1ncsc1CCO, which LC retention time is on record?
**A.** 4.25 min

**Q.** For O=C1OC2(c3ccc(O)cc3Oc3cc(O)ccc32)c2ccccc21, which LC retention time is on record?
**A.** 9.53 min

**Q.** With c1ccc2scnc2c1 as the compound, how does the LC retention time read?
**A.** 8.78 min

**Q.** Which LC retention time does the source give for CC(C)NCC(O)COc1cccc2[nH]c3ccccc3c12 (stereo not drawn) here?
**A.** 6.88 min

**Q.** Which LC retention time does the source give for O=C(O)C(c1ccccc1)C1CCCCN1 (stereo not drawn) here?
**A.** 4.91 min

**Q.** Which LC retention time does the source give for CNC(=O)N(C)c1nc2ccccc2s1 here?
**A.** 9.78 min

**Q.** Which LC retention time does the source give for Cn1c(=O)[nH]c(=O)c2[nH]cnc21 here?
**A.** 4.5 min

**Q.** For C=Cc1ccc(C[N+](C)(C)C)cc1, which LC retention time is on record?
**A.** 5.4 min

**Q.** For c1ccc2sc(C3CCCNC3)nc2c1 (stereo not drawn), which LC retention time is on record?
**A.** 5.62 min

**Q.** With Cc1ccc(NC(=O)c2ccc(CN3CCN(C)CC3)cc2)cc1Nc1nccc(-c2cccnc2)n1 as the compound, how does the LC retention time read?
**A.** 6.15 min

**Q.** For CCCCCCCCCC[N+](C)(C)Cc1ccccc1, which LC retention time is on record?
**A.** 10.4 min

**Q.** For CN(C)c1ccc(-c2nc3ccccc3[nH]2)cc1, which LC retention time is on record?
**A.** 6.52 min

**Q.** Which LC retention time does the source give for c1ccc([P+](CCC2OCCCO2)(c2ccccc2)c2ccccc2)cc1 here?
**A.** 7.98 min

**Q.** Which LC retention time does the source give for CCC(CC)Nc1c([N+](=O)[O-])cc(C)c(C)c1[N+](=O)[O-] here?
**A.** 16.2 min

**Q.** With OCC[P+](c1ccccc1)(c1ccccc1)c1ccccc1 as the compound, how does the LC retention time read?
**A.** 7.1 min

**Q.** For CC12CCC(=O)C=C1CCC1C2C(O)CC2(C)C1CCC2(O)C(=O)CO (stereo not drawn), which LC retention time is on record?
**A.** 8.32 min

**Q.** Which LC retention time does the source give for COc1ccc2nc(SCc3ncc(C(=O)O)c(OC)c3C)[nH]c2c1 here?
**A.** 5.75 min

**Q.** For CCN(CC)C(=O)c1cccc(C(=O)O)c1, which LC retention time is on record?
**A.** 7.36 min

**Q.** For CC(C)COP(=O)(OCC(C)C)OCC(C)C, which LC retention time is on record?
**A.** 14 min

**Q.** For CCN1CCCC1CNC(=O)c1cc(S(N)(=O)=O)ccc1OC (stereo not drawn), which LC retention time is on record?
**A.** 4.96 min

**Q.** With CCCCCCCCCCCCCCCC(=O)OCC(COP(=O)([O-])OCC[N+](C)(C)C)OC(=O)CCCC(=O)O (stereo not drawn) as the compound, how does the LC retention time read?
**A.** 15.2 min

**Q.** For O=c1[nH]cnc2c1cnn2C1OC(CO)C(O)C1O (stereo not drawn), which LC retention time is on record?
**A.** 4.31 min

**Q.** With O=C(O)CC1(C(=O)O)CCCCC1 as the compound, how does the LC retention time read?
**A.** 7.49 min

**Q.** With CC(C)OP(=O)(Oc1ccccc1)Oc1ccccc1 as the compound, how does the LC retention time read?
**A.** 12.8 min

**Q.** For Cc1noc(NS(=O)(=O)c2ccc(N)cc2)c1C, which LC retention time is on record?
**A.** 7.56 min

**Q.** For Cc1ccc(O)c(-n2nc3ccccc3n2)c1, which LC retention time is on record?
**A.** 15.2 min

**Q.** With Nc1ccc(O)c([N+](=O)[O-])c1 as the compound, how does the LC retention time read?
**A.** 4.69 min

**Q.** For S=P(c1ccccc1)(c1ccccc1)c1ccccc1, which LC retention time is on record?
**A.** 14.5 min

**Q.** With CCNC(=O)NC1CCCCC1 as the compound, how does the LC retention time read?
**A.** 7.7 min

**Q.** Which LC retention time does the source give for c1ccc2n[nH]nc2c1 here?
**A.** 5.88 min

**Q.** For CCNc1nc(NC(C)(C)C)nc(SC)n1, which LC retention time is on record?
**A.** 9.67 min

**Q.** With Oc1ccc(O)cc1 as the compound, how does the LC retention time read?
**A.** 3.67 min

**Q.** Which LC retention time does the source give for COCP(=O)(c1ccccc1)c1ccccc1 here?
**A.** 8.67 min

**Q.** For CC(C(=O)O)c1ccc(CC(C)(C)O)cc1 (stereo not drawn), which LC retention time is on record?
**A.** 8.21 min

**Q.** With OC(c1ccccc1)(c1ccccc1)C1CCNCC1 as the compound, how does the LC retention time read?
**A.** 6.64 min

**Q.** Which LC retention time does the source give for CSc1ncnc2c1ncn2C1OC(CO)C(O)C1O (stereo not drawn) here?
**A.** 5.67 min

**Q.** With COc1ccccc1NC(C)=O as the compound, how does the LC retention time read?
**A.** 7.37 min

**Q.** With CCN1C=CN(C)C1 as the compound, how does the LC retention time read?
**A.** 1.34 min

**Q.** For CC(=O)C1(O)CCC2C3CC(C)C4=CC(=O)CCC4(C)C3CCC21C (stereo not drawn), which LC retention time is on record?
**A.** 12.5 min

**Q.** With CNCC(c1ccc(O)cc1)C1(O)CCCCC1 (stereo not drawn) as the compound, how does the LC retention time read?
**A.** 5.66 min

**Q.** With CCC1(c2ccccc2)C(=O)NCNC1=O as the compound, how does the LC retention time read?
**A.** 6.35 min

**Q.** Which LC retention time does the source give for CCN(CC)C(=O)c1cccc(CO)c1 here?
**A.** 6.97 min

**Q.** For CCCCN1C=CN(C)C1C (stereo not drawn), which LC retention time is on record?
**A.** 4.73 min

**Q.** Which LC retention time does the source give for CCCCCCCCCCCCCCCC[P+](CCCC)(CCCC)CCCC here?
**A.** 16 min

**Q.** For CN(C)C1C(=O)C(C(N)=O)=C(O)C2(O)C(=O)C3=C(O)c4c(O)cccc4C(C)(O)C3CC12 (stereo not drawn), which LC retention time is on record?
**A.** 5.46 min

**Q.** Which LC retention time does the source give for CC1(C)OCC2OC3(C(=O)O)OC(C)(C)OC3C2O1 (stereo not drawn) here?
**A.** 7.35 min

**Q.** Which LC retention time does the source give for COC12C(COC(N)=O)C3=C(C(=O)C(C)=C(N)C3=O)N1CC1NC12 (stereo not drawn) here?
**A.** 5.59 min

**Q.** Which LC retention time does the source give for COc1ccc(NC(C)=O)cc1 here?
**A.** 6.51 min

**Q.** For CCOC(=O)c1ccc(O)cc1, which LC retention time is on record?
**A.** 8.83 min

**Q.** Which LC retention time does the source give for COC(=O)C1CCC(=O)N1 (stereo not drawn) here?
**A.** 4.58 min

**Q.** For O=[P+](c1ccccc1)c1ccccc1, which LC retention time is on record?
**A.** 8.03 min

**Q.** For CCC(C(=O)O)N1CCCC1=O (stereo not drawn), which LC retention time is on record?
**A.** 5.7 min

**Q.** For Nc1ccc2c(c1)C(=O)OC21c2ccc(O)cc2Oc2cc(O)ccc21, which LC retention time is on record?
**A.** 8.16 min

**Q.** For COC(=O)c1ccc(O)cc1, which LC retention time is on record?
**A.** 7.59 min

**Q.** For O=C1OCCOC(=O)c2ccc(cc2)C(=O)OCCOC(=O)c2ccc(cc2)C(=O)OCCOC(=O)c2ccc1cc2, which LC retention time is on record?
**A.** 14.5 min

**Q.** Which LC retention time does the source give for CNC(=O)C(=NOC)c1ccccc1COc1cc(C)ccc1C here?
**A.** 13.2 min

**Q.** For Cn1c(=O)c2ncn(C)c2n(C)c1=O, which LC retention time is on record?
**A.** 4.73 min

**Q.** With C[P+](c1ccccc1)(c1ccccc1)c1ccccc1 as the compound, how does the LC retention time read?
**A.** 7.19 min

**Q.** For COc1ccc(OC)cc1, which LC retention time is on record?
**A.** 10.1 min

**Q.** For COC(=O)Nc1nc2ccc(C(=O)c3ccccc3)cc2[nH]1, which LC retention time is on record?
**A.** 8.67 min

**Q.** With O=C([O-])CCCC[P+](c1ccccc1)(c1ccccc1)c1ccccc1 as the compound, how does the LC retention time read?
**A.** 7.21 min

**Q.** For S=c1[nH]c2ccccc2s1, which LC retention time is on record?
**A.** 9.12 min
